In patent US12185720B2, “Chitooligosaccharides and methods for use in enhancing plant growth” (NOVOZYMES BIOAG A/S, priority 2011, dated 2025):
Entries after “also recorded” stand apart in the source; their conditions may differ.

How the values were obtained:
[1] = test system: Corn seeds; assay: Corn seed germination and root length in petriplates; assay type: in vivo; details: 5 days after plating
Experimental: Corn and wheat seeds were plated in petriplates containing 5 ml of treatment solution on a filter paper. Corn seeds were placed on moist filter paper for germination. Similarly, wheat seeds (spring wheat) were placed in petriplates. […] Roots were harvested and their length measured by WinRhizo system.

[2] = test system: Cotton seeds; assay: Cotton seed treatment (greenhouse); assay type: in vivo; details: seed treatment 10^−8 M, 3 fl oz/100 lbs of seed; 4 wks; FIG. 26
Experimental: Cotton seeds were treated with LCO and CO 10^−8 M treatment solutions at a dose rate of 3 fl oz/100 lbs of seed. Seeds were planted the very next day in plastic pots containing 1:1 sand:perlite mixture. Seeds were grown in greenhouse for 4 wks and then they were harvested.

[3] = test system: Green Mung seeds; assay: Seed germination in multiple crops: Green Mung; assay type: in vivo; details: 24 h, dark, 22° C., FIG. 23
Experimental: (§1) Similar to the seed germination experiment mentioned above, seeds of different crops were placed on moist filter paper in petriplates containing 5 ml liquid in each. Petriplates with seeds were then kept in the dark at 22° C.

[4] = test system: Red Clover seeds; assay: Seed germination in multiple crops: Red Clover; assay type: in vivo; details: 24 h, dark, 22° C., FIG. 23
Experimental: as §1

[5] = test system: Cotton plants; assay: Cotton foliar application with micronutrients (greenhouse); assay type: in vivo; details: foliar spray Pea CO 10^−8 M, 4 wks after treatment, compared to control
Experimental: Cotton plants were grown from seeds in greenhouse plastic pots containing sand:perlite in a 1:1 mixture. When seedlings were at the V-stage, they were foliar-sprayed with Pea CO (10^−8 M) and CO plus micronutrients (Ca-pantothenate and boric acid), each in minute amounts. Plants were harvested 4 wks after treatment. Before harvest, leaf greenness was measured by SPAD chlorophyll meter.

[6] = test system: soybean; assay: Soybean field trials, foliar application, grain yield; assay type: in vivo
[7] = test system: Lab Lab seeds; assay: Seed germination in multiple crops: Lab Lab; assay type: in vivo; details: 30 h, dark, 22° C., FIG. 23
Experimental: as §1

[8] = test system: Red Clover root hairs; assay: Root hair deformation bioassay, Red Clover; details: compared to LCO
Experimental: (§2) Siratro (Macroptelium atropurpureum) seeds were germinated on moist filter paper in petriplates. When seedlings roots are about 1-inches long, they are severed from the seedlings and treated with 2 ml of 10^−8M treatment solutions in test tubes for 4 hours in the dark. After treatment time is over the solutions are dyed with Congo Red for 10 minutes. After that root segments are observed under a compound microscope to count the number of deformed root hairs in the most sensitive zone of the root segment. Root hair deformation bioassay was also performed using Red Clover in a similar fashion like Siratro above and only visual observation was made and recorded in text form.

[9] = test system: Soybean seeds (Jung seed, var. 8168NRR); assay: Treatment of soybean seed with various actives (greenhouse); assay type: in vivo
Experimental: Soybean seeds (Jung seed, var. 8168NRR) were treated with various active molecules. Seeds were treated with a liquid dose rate of 3 fl oz/100 lbs of seed. Seeds were allowed to dry for a 2 hours and planted in greenhouse in plastic pots containing 1:1 sand:perlite mixture. Seedlings were grown for 4 wks with occasional liquid fertilizer applications and then the plants were harvested. The central leaflet from the 2nd trifoliate (from down to top) was isolated and measured for surface area on a WinRhizo scanner. The rest of the plants were used for plant dry weight (DW).

[10] = test system: Alfalfa (Medicago sativa) seeds; assay: Alfalfa seed germination; assay type: in vivo; details: 10^−8 M, FIG. 17
Experimental: Alfalfa (Medicago sativa) seeds were germinated in petriplates on moist filter paper containing Pea LCO and Pea CO treatment solutions (10^−8 M) and petriplates were kept in the dark at room temperature (22° C.).

[11] = test system: canola seeds; assay: Canola seed germination in petriplates; assay type: in vivo; details: 10^−9 M
Experimental: (§3) In petriplates on moist filter paper moistened with 10^−9 M treatment solution, canola and wheat seeds were plated for germination. At 18 h after plating, Pea CO induced more canola and wheat seed germination as compared to Pea LCO. Over the period of 21 to 24 hours, seed germination rate for LCO and CO leveled up.

[12] = test system: Siratro (Macroptelium atropurpureum) root segments; assay: Root hair deformation bioassay, Siratro; details: 4 hours in the dark, FIG. 14
Experimental: as §2

[13] = test system: wheat seeds; assay: Wheat seed germination in petriplates (Example 6); assay type: in vivo; details: 10^−9 M
Experimental: as §3

[14] = test system: Tomato seeds of hybrid tomato var. Royal Mounty; assay: In vitro tomato seedling root growth bioassay (agar medium); assay type: in vivo; details: for tomato seedling root length, compared to LCO: 22° C., FIG. 5
Experimental: Tomato seeds of hybrid tomato var. Royal Mounty were surface sterilized with 10% bleach solution for 10 minutes followed by 3 rinses with sterilized distilled water. Seeds were then dried in a laminar air flow hood for 3 hours. Seeds were then placed in petri-dishes on solidified agar medium containing various concentrations of different sources of the LCO illustrated in FIG. 1b (manufactured by Darmstadt, Germany and Grenoble, France) (also referred to in the examples as the “soybean LCO”) and the inventive CO illustrated in FIG. 2a (also referred to in the examples as the “pea CO” or “CO-V”). Seedling roots were measured by a hand ruler and root fresh weights were taken in a micro balance at day 7. Growth study was done in a growth chamber at 22° C.

[15] = test system: Sorghum seeds; assay: Sorghum seed germination in petriplates; assay type: in vivo; details: CO 10^−8 M, LCO 10^−8 M alone or CO 10^−8 with LCO 10^−9; after 5 days; FIG. 29
Experimental: Sorghum seeds were germinated in petriplates containing liquid treatment solutions. Seedlings were harvested after 5 days and their roots were measured using WinRHIZO scanner.

CC(=O)NC1C(O)OC(CO)C(OC2OC(CO)C(OC3OC(CO)C(OC4OC(CO)C(OC5OC(CO)C(O)C(O)C5N)C(O)C4NC(C)=O)C(O)C3NC(C)=O)C(O)C2NC(C)=O)C1O (stereo not drawn) [Pea CO]
corn seed germination ([1]; FIG. 18): increased germination | corn seedling root length over control ([1]; WinRhizo, FIG. 19): significantly increased | cotton plant dry weight [2]: no significant differences; also recorded: relatively higher | total plant dry weight increase over control [2]: 3.29% | seed germination [3]: better germination | seed germination [4]: better germination | leaf greenness (SPAD chlorophyll meter) ([5]; FIG. 30): significantly increased | average dry plant weight ([5]; FIG. 31): numerical increase | YIELD, Mean (N = 19) ([6]; soybean foliar at V4 to V5, 8×10^−8 molar, 12 μg/acre, with glyphosate): 58.2 bu/A | YIELD, Response Increase ([6]; soybean foliar, 12 μg/acre): 3 % of Control | YIELD, Response Increase ([6]; soybean foliar, 12 μg/acre, listed as CO (CO-V)): 3% of Control | YIELD, Response ([6]; soybean foliar, 12 μg/acre, over Control): 1.7 bu/A | CO mean yield less than foliar LCO ([6]; soybean foliar, CO minus LCO, less): 0.1 bu/A | yield enhancement as a foliar treatment (conclusion) ([6]; soybean foliar, CO versus LCO): substantially equal yield enhancements | Positive Yield Response ([6]; soybean foliar, percent of the 19 trials): 68.4% | seed germination [7]: better germination | root hair deformation pattern (visual observation) [8]: much better and prominent; also recorded: best root hair deformer | plant dry weights (shoot, root or total plant biomass) ([9]; another experiment, vs soybean LCO, isoflavonoids, water, FIG. 13): highest plant dry weights | leaf surface area ([9]; seed treatment 3 fl oz/100 lbs of seed, 4 wks, central leaflet of 2nd trifoliate, vs control (water), FIG. 12): significant increase | leaf surface area, among the three actives (pea LCO, pea CO, China CO) ([9]; seed treatment, 4 wks, FIG. 12): highest leaf surface area | effect on alfalfa seed germination (conclusion) [10]: could positively impact | germination rate at 20 h among control, LCO and CO ([10]; dark, 22° C.): no difference | more germination over control and LCO at 27 h ([10]; dark, 22° C.): 6% | seed germination at 18 h as compared to Pea LCO ([11]; FIG. 15): more | seed germination rate over 21 to 24 hours ([11]; LCO versus CO): leveled up | root hair deformation ([12]; 10^−8M treatment solutions): induced root hair deformation | root hair deformation compared to LCO or CO ([12]; 10^−8M): equal to LCO | seed germination at 18 h as compared to Pea LCO ([13]; FIG. 16): more | seed germination rate over 21 to 24 hours ([13]; LCO versus CO): leveled up | average root growth from all 3 concentrations, compared to LCOs ([14]; FIGS. 7 and 8): significantly better than LCOs | seedling root fresh weight, compared to LCO ([14]; all three levels of concentrations (10^−7, 10^−8 and 10^−9 M), day 7, FIG. 6): outperformed LCO | tomato seedling root length, compared to LCO ([14]; at 10^−7M and 10^−9M, day 7): better | tomato seedling root length, compared to LCO ([14]; at 10^−8M, day 7): equal | root fresh weight, compared to control seedlings ([14]; day 7, control water): significantly better than control seedlings | root length, compared to control seedlings ([14]; day 7, control water): significantly better than control seedlings | sorghum seedling root length [15]: increased seedling root length
